Common to all, as to test: NCI anticancer screen, dose series, 48 h
Experiment [1] deals with NCI-H460.
For experiment [2], the system named is T47D.
Experiment [3] deals with MOLT-4.
In experiment [4] the test system is OVCAR-5.
Experiment [5] deals with IGROV-1.
Experiment [6] deals with HCT-116.
Experiment [7] has as its system UACC-257.
In experiment [8] the test system is KM12.
The test system of experiment [9] is HCT-15.
In experiment [10] the test system is SN12C.
Experiment [11] deals with SNB-75.
Experiment [12] deals with HT-29.
The subject of experiment [13] is 786-0.
The subject of experiment [14] is PC-3.
The subject of experiment [15] is CCRF-CEM.
Experiment [16] concerns Hs-578T.
Experiment [17] relates to K562.
The test system of experiment [18] is SR.
The test system of experiment [19] is UACC-62.

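Growth conditions: 96-well plates. Treatment: test compound, 48 hours, 5 concentrations. Analysis: linear interpolation between bracketing concentrations; unreached endpoints set to highest concentration. Abbreviation: GI50, concentration required for 50% inhibition of growth.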 The source made the active and inactive calls. Rule as the data show it: active = GI50 up to about 1.1 µM and inactive = higher. Bounds are passed on as bounds.

The text below walks through data of ChEMBL document CHEMBL1201862, “PubChem BioAssay data set” (2004).

`Cc1ccccc1NC(=O)Cc1csc2[n+]1C(=O)/C(=C/c1ccc([N+](=O)[O-])cc1)S2`: the GI50 was 22.1 µM (inactive) in experiment [1]; 29.2 µM (inactive) in experiment [2]; 25.5 µM (inactive) in [3]; 37.8 µM (inactive) in experiment [4]; 25.7 µM (inactive) in [5]; 37.6 µM (inactive) in [6]. For the same compound, the GI50 in experiment [7] was 37.1 µM (inactive); in experiment [8] it was 23.7 µM (inactive); in [9], 24.3 µM; in experiment [10] it was 43.4 µM (inactive); in experiment [11], 19.3 µM (inactive); in [12] it was 36 µM (inactive). Also, the GI50 in experiment [13] was 58.9 µM (inactive); in experiment [14], 26.8 µM (inactive).
On to `O=Cc1c(C(=O)O)[nH]c(=O)[nH]c1=O`, for which the GI50 in experiment [1] is > 100 µM (inactive); in experiment [15], > 100 µM (inactive); in [16] it was > 100 µM (inactive); in [3] it was > 100 µM (inactive); in [4] it was 39.8 µM (inactive); in experiment [5], > 100 µM (inactive). The GI50 is > 100 µM (inactive) in experiment [17]; > 100 µM (inactive) in experiment [6]; > 100 µM (inactive) in experiment [7]; > 10 µM (inactive) in [18]; > 100 µM (inactive) in experiment [8]; > 100 µM (inactive) in [19]. In addition, the GI50 in [9] was > 100 µM; in experiment [10], > 100 µM (inactive); in [11], > 100 µM (inactive); in experiment [12], > 100 µM (inactive); in experiment [13], > 100 µM (inactive); in experiment [14], > 100 µM (inactive).
`O=C1C(c2c(O)[nH]c3ccc(F)cc23)=Nc2ccccc21`: the GI50 in experiment [1] was > 100 µM (inactive); in experiment [15], 28 µM (inactive); in [16], 13.6 µM (inactive); in [3], 21.1 µM (inactive); in experiment [4], > 100 µM (inactive); in experiment [5] it was 1.03 µM (active). In addition, the GI50 was 44.2 µM (inactive) in [17]; > 100 µM (inactive) in [6]; > 100 µM (inactive) in [7]; > 100 µM (inactive) in experiment [18]; > 100 µM (inactive) in experiment [8]; > 100 µM (inactive) in [19]. The GI50 in experiment [9] is > 100 µM; in experiment [10], > 100 µM (inactive); in experiment [11], 3.21 µM (inactive); in [12], > 100 µM (inactive); in experiment [13] it was 4.85 µM (inactive); in experiment [14] it was > 100 µM (inactive).
On to `Cc1ccc(-c2nc(-c3cnccn3)n(C3OC(CO)C(O)C(O)C3O)n2)cc1` (stereo not drawn), for which the GI50 in experiment [1], in experiment [15], in [2], in experiment [3], in experiment [4] and in [5] was > 100 µM (inactive) each time. Besides, the GI50 in [17], in experiment [6], in experiment [7], in [18], in experiment [8] and in experiment [19] was > 100 µM (inactive) throughout. Besides, the GI50 is > 100 µM in [9]; > 100 µM (inactive) in experiment [10]; > 100 µM (inactive) in [11]; > 100 µM (inactive) in experiment [12]; > 100 µM (inactive) in [13]; > 100 µM (inactive) in experiment [14].
As for `N[C@@H]1CCN(c2c(F)cc3c(=O)c(C(=O)O)cn4c3c2Oc2c-4ccc3c2ccc2ccccc23)C1`, the GI50 is 0.396 µM (active) in experiment [1]; 10.8 µM (inactive) in [16]; 4 µM (inactive) in experiment [3]; 2.86 µM (inactive) in experiment [4]; 0.413 µM (active) in experiment [5]; 3.1 µM (inactive) in experiment [17]. Further, the GI50 in experiment [6] was 1.08 µM (active); in experiment [7], 5.42 µM (inactive); in experiment [18] it was 0.225 µM (active); in experiment [8], 4.38 µM (inactive); in [19], 2.79 µM (inactive); in [9], 1.96 µM. The GI50 in experiment [10] is 3.37 µM (inactive); in experiment [12], 0.241 µM (active); in experiment [13], 0.412 µM (active); in [14] it was 2.82 µM (inactive).
With `CCOC(=O)CCCO`, the GI50 in experiment [1], in experiment [15], in experiment [3], in experiment [4], in experiment [5] and in experiment [17] was > 100 µM (inactive) throughout. Moreover, the GI50 in [6] was > 10 µM (inactive); in [7], > 100 µM (inactive); in experiment [18] it was > 100 µM (inactive); in experiment [8], > 100 µM (inactive); in experiment [19], > 100 µM (inactive); in [9] it was > 100 µM. For the same compound, the GI50 in [10] is > 100 µM (inactive); in experiment [11] it was 71.3 µM (inactive); in [12], > 100 µM (inactive); in experiment [13], > 100 µM (inactive).
Turning to `O=[PH]1c2ccccc2Nc2ccccc21`, the GI50 in experiment [1] is 53.5 µM (inactive); in experiment [15] it was > 100 µM (inactive); in experiment [2], > 100 µM (inactive); in experiment [3], 26.2 µM (inactive); in [4] it was > 100 µM (inactive); in [5], > 100 µM (inactive). Further, the GI50 in [17] is 21.6 µM (inactive); in [6] it was > 100 µM (inactive); in experiment [7], > 100 µM (inactive); in experiment [18], > 100 µM (inactive); in experiment [8], > 100 µM (inactive); in experiment [19], > 100 µM (inactive). The GI50 is 37.1 µM in [9]; > 100 µM (inactive) in experiment [10]; > 100 µM (inactive) in experiment [11]; 51.6 µM (inactive) in experiment [12]; > 100 µM (inactive) in experiment [13]; 47.1 µM (inactive) in experiment [14].
As to `C#CCN(CC#C)C(=O)C(=O)c1c[nH]c2ccc(OC)cc12`, the GI50 in experiment [1] was 15 µM (inactive); in [15], 19.7 µM (inactive); in experiment [16], 16.1 µM (inactive); in experiment [2], 24.2 µM (inactive); in [3] it was > 10 µM (inactive); in [4], 17.4 µM (inactive). Also, the GI50 in experiment [5] is 33 µM (inactive); in experiment [17] it was 18.6 µM (inactive); in experiment [6] it was 17.5 µM (inactive); in experiment [7] it was 17.5 µM (inactive); in experiment [18], 11.1 µM (inactive); in experiment [8] it was 14 µM (inactive). Also, the GI50 in experiment [19] was 19.5 µM (inactive); in experiment [9], 15.5 µM; in experiment [10], 15.3 µM (inactive); in experiment [11], 20.2 µM (inactive); in experiment [12], 12.5 µM (inactive); in experiment [13], 16.6 µM (inactive).
Regarding `C=CCN1C2Cc3cc(OC)c(OC)cc3C1Cc1cc(OC)c(OC)cc12`, the GI50 in experiment [1], in experiment [15], in experiment [3], in [4], in experiment [17] and in [7] was > 100 µM (inactive) in each case. Besides, the GI50 is > 100 µM (inactive) in experiment [8]; > 100 µM in experiment [9]; > 100 µM (inactive) in experiment [10]; > 100 µM (inactive) in [11]; 69 µM (inactive) in [12]; > 100 µM (inactive) in [13].
